Measured values reported in patent US20260042755A1, “GPR6 INVERSE AGONISTS” (MapLight Therapeutics, Inc., priority 2022, published 2026).
pIC50: −log10 of the molar value.

Experiments:
GPR6 = target: T1, GPR6 (Homo sapiens, UniProt P46095); test: GPR6 antagonist functional cAMP assay (LANCE Ultra cAMP TR-FRET, CHO cells stably expressing GPR6); assay type: cell-based
T1 construct: expressed in transfected cells; host or cells: CHO cells
In short: (§1)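 We measure cAMP by TR-FRET (665 nm) in cells held in glucose-containing Krebs-Ringer buffer with BSA and a PDE inhibitor, after a 45 min, 37 °C compound incubation. IC50s derive from a four-parameter logistic fit.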

GPR3 = target: T2, GPR3 (Homo sapiens, UniProt P46089); test: GPR3 antagonist functional cAMP assay (LANCE Ultra cAMP TR-FRET, CHO cells stably expressing GPR3); assay type: cell-based
T2 construct: expressed in transfected cells; host or cells: CHO cells
T2 sequence (P46089 whole entry, species assumed): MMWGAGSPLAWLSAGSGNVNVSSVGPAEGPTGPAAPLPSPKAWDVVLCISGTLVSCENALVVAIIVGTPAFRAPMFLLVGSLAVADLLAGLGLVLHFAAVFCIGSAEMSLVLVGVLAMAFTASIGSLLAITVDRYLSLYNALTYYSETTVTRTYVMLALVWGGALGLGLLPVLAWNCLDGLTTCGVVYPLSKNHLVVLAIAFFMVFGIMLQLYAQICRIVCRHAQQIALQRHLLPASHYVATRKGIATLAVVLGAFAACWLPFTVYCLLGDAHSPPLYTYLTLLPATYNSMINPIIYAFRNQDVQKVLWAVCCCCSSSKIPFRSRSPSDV
In short: as §1

[1] = CHO cells stably expressing GPR6, cAMP assay (Example 24)
[2] = CHO cells stably expressing GPR3, cAMP assay (Example 24)
[3] = procedure as described in Example 24
[4] = CHO cells stably expressing GPR6, cAMP assay
[5] = CHO cells stably expressing GPR3, cAMP assay

T1 sequence (P46095 whole entry): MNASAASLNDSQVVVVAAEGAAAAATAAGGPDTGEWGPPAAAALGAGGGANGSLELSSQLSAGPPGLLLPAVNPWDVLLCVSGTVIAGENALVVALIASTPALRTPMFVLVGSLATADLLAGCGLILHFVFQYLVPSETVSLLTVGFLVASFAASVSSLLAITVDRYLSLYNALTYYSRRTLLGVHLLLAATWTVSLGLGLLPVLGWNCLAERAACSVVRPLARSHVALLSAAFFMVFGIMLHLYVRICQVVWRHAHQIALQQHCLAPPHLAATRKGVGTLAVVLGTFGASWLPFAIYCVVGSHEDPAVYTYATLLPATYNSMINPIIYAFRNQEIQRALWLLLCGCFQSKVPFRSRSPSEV

Compound | pIC50 (GPR6; [1]) | pIC50 (GPR3; [2]) | pIC50 (GPR6; procedure of Example 24) | pIC50 (GPR3; procedure of Example 24) | also measured
CC(=O)N1CCc2nc(N3CCC(Oc4ccc(F)cc4F)CC3)c(-c3cccc(Cl)n3)nc2C1 [Compound 137, 1-(3-(6-chloropyridin-2-yl)-2-(4-(2,4-difluorophenoxy)piperidin-1-yl)-7,8-dihydropyrido[3,4-b]pyrazin-6(5H)-yl)ethanone] | 6.00 to 7.00 | 4.52 to 6.00 |  |  | 
N#CN1CCc2nc(N3CCC(Oc4ccc(F)cc4F)CC3)c(-c3cn[nH]c3)nc2C1 [Compound 171, 2-[4-(2,4-difluorophenoxy)piperidin-1-yl]-3-(1H-pyrazol-4-yl)-5H,6H,7H,8H-pyrido[3,4-b]pyrazine-6-carbonitrile] | > 7.00 | 4.52 to 6.00 |  |  | 
O=C(C1CCCN1)N1CCc2nc(N3CCC(Oc4ccc(F)cc4F)CC3)c(-c3cn[nH]c3)nc2C1 (stereo not shown) [Compound 178, 4-(2,4-difluorophenoxy)-1-[3-(1H-pyrazol-4-yl)-6-(pyrrolidine-2-carbonyl)-5H,6H,7H,8H-pyrido[3,4-b]pyrazin-2-yl]piperidine] | 6.00 to 7.00 | 4.52 to 6.00 |  |  | 
CNC(=O)c1ccc2nc(-c3nccn3COC)c(N3CCN(Cc4cc(Cl)ccc4Cl)CC3)nc2c1 [Compound 6, 3-{4-[(2,5-dichlorophenyl)methyl]piperazin-1-yl}-2-[1-(methoxymethyl)-1H-imidazol-2-yl]-N-methylquinoxaline-6-carboxamide] |  |  |  |  | pIC50 (GPR6; [3]): 4.52 to 6.00; pIC50 (GPR3; [3]): 4.52 to 6.00
CCn1cc(-c2nc3c(nc2N2CCC(Oc4ccc(F)cc4F)CC2)CCN(C(=O)C(C)(O)CO)C3)cn1 (stereo not shown) [Compound 519, 1-{2-[4-(2,4-difluorophenoxy)-1-piperidyl]-3-(1-ethyl-4-pyrazolyl)-5,6,7,8-tetrahydro-1,4,6-triaza-6-naphthyl}-2,3-dihydroxy-2-methyl-1-propanone] |  |  |  |  | pIC50 (GPR6; [4]): 6.00 to 7.00; pIC50 (GPR3; [5]): 4.52 to 6.00
CC(=O)N1CCc2nc(N3CCC(Oc4ccc(F)cc4F)CC3)c(-c3cccc(=O)[nH]3)nc2C1 [Compound 33, 6-(6-acetyl-2-(4-(2,4-difluorophenoxy)piperidin-1-yl)-5,6,7,8-tetrahydropyrido[3,4-b]pyrazin-3-yl)pyridin-2(1H)-one] |  |  |  |  | pIC50 (GPR6; [3]): 6.00 to 7.00; pIC50 (GPR3; [3]): 4.52 to 6.00
CC(=O)N1CCc2nc(N3CCC(Oc4ccc(F)cc4F)CC3)c(-c3ccncn3)nc2C1 [Compound 13, 1-{2-[4-(2,4-difluorophenoxy)piperidin-1-yl]-3-(pyrimidin-4-yl)-5H,6H,7H,8H-pyrido[3,4-b]pyrazin-6-yl}ethan-1-one] |  |  |  |  | pIC50 (GPR6; [3]): 4.52 to 6.00; pIC50 (GPR3; [3]): 6.00 to 7.00
CC(=O)N1CCc2nc(N3CCN(Cc4ccco4)CC3)c(-c3cnn(C)c3)nc2C1 [Compound 537, 1-[2-(4-furfuryl-1-piperazinyl)-3-(1-methyl-4-pyrazolyl)-5,6,7,8-tetrahydro-1,4,6-triaza-6-naphthyl]-1-ethanone] |  |  |  |  | pIC50 (GPR6; [4]): 4.52 to 6.00; pIC50 (GPR3; [5]): 4.52 to 6.00
CCn1cc(-c2nc3c(nc2N2CCC(Oc4ccc(F)cc4F)CC2)CCN(C(=O)C2COCCO2)C3)cn1 (stereo not shown) [Compound 474, 4-(2,4-difluorophenoxy)-1-[6-(1,4-dioxane-2-carbonyl)-3-(1-ethyl-1H-pyrazol-4-yl)-5H,6H,7H,8H-pyrido[3,4-b]pyrazin-2-yl]piperidine] | > 7.00 | 4.52 to 6.00 |  |  | 
Fc1ccc(Cl)cc1CN1CCN(c2nc3ccncc3nc2-c2cn[nH]c2)CC1 [Compound 4, 1-[(5-chloro-2-fluorophenyl)methyl]-4-[3-(1H-pyrazol-4-yl)pyrido[3,4-b]pyrazin-2-yl]piperazine] |  |  |  |  | pIC50 (GPR6; [3]): 6.00 to 7.00; pIC50 (GPR3; [3]): 4.52 to 6.00
CC(=O)N1CCc2nc(N3CCC(Oc4cccc(F)c4)C3)c(-c3cnn(C)c3)nc2C1 (stereo not shown) [Compound 383, 1-{2-[3-(3-fluorophenoxy)pyrrolidin-1-yl]-3-(1-methyl-1H-pyrazol-4-yl)-5H,6H,7H,8H-pyrido[3,4-b]pyrazin-6-yl}ethan-1-one] | 4.52 to 6.00 | 4.52 to 6.00 |  |  | 
CC(=O)N1CCc2nc(N3CCC(Oc4ccc(F)cc4F)CC3)c(-c3cccc(C)n3)nc2C1 [Compound 68, 1-{2-[4-(2,4-difluorophenoxy)piperidin-1-yl]-3-(6-methylpyridin-2-yl)-5H,6H,7H,8H-pyrido[3,4-b]pyrazin-6-yl}ethan-1-one] | 6.00 to 7.00 | 4.52 to 6.00 |  |  | 
CCn1cc(-c2nc3c(nc2N2CCC(Oc4ccc(F)cc4F)CC2)CCN(C[C@@H](O)CO)C3)cn1 (single isomer, unassigned) [Compound 290] |  |  | 6.00 to 7.00 | 4.52 to 6.00 | 
CC(C)(O)[C@@H](O)c1cc2nc(N3CCC(=Cc4ccc(F)cc4F)CC3)c(-c3cnn(C(F)F)c3)nc2cn1 (single isomer, unassigned) [Compound 778] |  |  | 6.00 to 7.00 | 4.52 to 6.00 | 
CCn1cc(-c2nc3c(nc2N2CCC(Oc4ccc(F)cc4F)CC2)CCN(S(N)(=O)=O)C3)cn1 [Compound 478, 2-(4-(2,4-difluorophenoxy)piperidin-1-yl)-3-(1-ethyl-1H-pyrazol-4-yl)-7,8-dihydropyrido[3,4-b]pyrazine-6(5H)-sulfonamide] | 6.00 to 7.00 | 4.52 to 6.00 |  |  | 
COc1nccc(-c2nc3c(nc2N2CCC(Oc4ccc(F)cc4F)CC2)CCN(C(C)=O)C3)n1 [Compound 111, 1-{2-[4-(2,4-difluorophenoxy)piperidin-1-yl]-3-(2-methoxypyrimidin-4-yl)-5H,6H,7H,8H-pyrido[3,4-b]pyrazin-6-yl}ethan-1-one] | 6.00 to 7.00 | 6.00 to 7.00 |  |  | 
CN(C)C(=O)N1CCc2nc(N3CCC(Oc4ccc(F)cc4F)CC3)c(-c3cnn(C4CCCCO4)c3)nc2C1 (stereo not shown) [Compound 182, 2-[4-(2,4-difluorophenoxy)piperidin-1-yl]-N,N-dimethyl-3-[1-(oxan-2-yl)-1H-pyrazol-4-yl]-5H,6H,7H,8H-pyrido[3,4-b]pyrazine-6-carboxamide] | 6.00 to 7.00 | 4.52 to 6.00 |  |  | 
CC(=O)N1CCc2nc(N3CCC(C(O)c4ccc(F)cc4F)CC3)c(-c3cnn(C)c3)nc2C1 (stereo not shown) [Compound 545, 1-(2-{4-[(2,4-difluorophenyl)hydroxymethyl]-1-piperidyl}-3-(1-methyl-4-pyrazolyl)-5,6,7,8-tetrahydro-1,4,6-triaza-6-naphthyl)-1-ethanone] |  |  |  |  | pIC50 (GPR6; [4]): 6.00 to 7.00; pIC50 (GPR3; [5]): 4.52 to 6.00
COCCN1CCc2nc(N3CCC(Oc4ccc(F)cc4F)CC3)c(-c3cn[nH]c3)nc2C1 [Compound 143, 4-(2,4-difluorophenoxy)-1-[6-(2-methoxyethyl)-3-(1H-pyrazol-4-yl)-5H,6H,7H,8H-pyrido[3,4-b]pyrazin-2-yl]piperidine] | 6.00 to 7.00 | 4.52 to 6.00 |  |  | 
COc1ccnc(-c2nc3c(nc2N2CCC(Oc4ccc(F)cc4F)CC2)CCN(C(C)=O)C3)n1 [Compound 56, 1-{2-[4-(2,4-difluorophenoxy)piperidin-1-yl]-3-(4-methoxypyrimidin-2-yl)-5H,6H,7H,8H-pyrido[3,4-b]pyrazin-6-yl}ethan-1-one] | 4.52 to 6.00 | 6.00 to 7.00 |  |  | 
Cn1cc(-c2nc3cc([C@@H](O)C(C)(C)O)ncc3nc2N2CCC(=Cc3ccc(F)cc3F)CC2)cn1 (single isomer, unassigned) [Compound 763] |  |  | > 7.00 | 6.00 to 7.00 | 
COc1cccc(-c2nc3cnccc3nc2N2CCC(Oc3ccc(F)cc3F)CC2)n1 [Compound 102, 2-{2-[4-(2,4-difluorophenoxy)piperidin-1-yl]pyrido[3,4-b]pyrazin-3-yl}-6-methoxypyridine] | 6.00 to 7.00 | 4.52 to 6.00 |  |  | 
CCn1cc(-c2nc3c(nc2N2CCC(Oc4ccc(F)cc4F)CC2)CCN(S(=O)(=O)CC)C3)cn1 [Compound 267, 4-(2,4-difluorophenoxy)-1-[6-(ethanesulfonyl)-3-(1-ethyl-1H-pyrazol-4-yl)-5H,6H,7H,8H-pyrido[3,4-b]pyrazin-2-yl]piperidine] |  |  | 6.00 to 7.00 | 4.52 to 6.00 | 

Continued, in another order:

pIC50 (GPR6; [1]) | pIC50 (GPR3; [2]) | pIC50 (GPR6; procedure of Example 24) | pIC50 (GPR3; procedure of Example 24) | Compound | also measured
 |  | 6.00 to 7.00 | 4.52 to 6.00 | Cn1cc(-c2nc3cnc(C(C)(O)C(C)(C)O)cc3nc2N2CCN(Cc3ccc(F)cc3F)CC2)cn1 (stereo not shown) [Compound 617, 2-(2-{4-[(2,4-difluorophenyl)methyl]-1-piperazinyl}-3-(1-methyl-4-pyrazolyl)-1,4,6-triaza-7-naphthyl)-3-methyl-2,3-butanediol] | 
 |  | > 7.00 | 4.52 to 6.00 | CCn1cc(-c2nc3cnccc3nc2N2CCC(Oc3cc(Cl)ccc3Cl)CC2)cn1 [Compound 288, 4-(2,5-dichlorophenoxy)-1-[3-(1-ethyl-1H-pyrazol-4-yl)pyrido[3,4-b]pyrazin-2-yl]piperidine] | 
 |  | 4.52 to 6.00 | 4.52 to 6.00 | COc1ccc(CN2CCN(c3nc4c(nc3-c3cnn(C)c3)CN(C(C)=O)CC4)CC2)cn1 [Compound 345, 1-(2-{4-[(6-methoxypyridin-3-yl)methyl]piperazin-1-yl}-3-(1-methyl-1H-pyrazol-4-yl)-5H,6H,7H,8H-pyrido[3,4-b]pyrazin-6-yl)ethan-1-one] | 
 |  | ≤ 4.52 | 4.52 to 6.00 | COc1cccc(CN2CCN(c3nc4c(nc3-c3cnn(C)c3)CN(C(C)=O)CC4)CC2)c1F [Compound 318, 1-(2-{4-[(2-fluoro-3-methoxyphenyl)methyl]piperazin-1-yl}-3-(1-methyl-1H-pyrazol-4-yl)-5H,6H,7H,8H-pyrido[3,4-b]pyrazin-6-yl)ethan-1-one] | 
 |  | 4.52 to 6.00 | 4.52 to 6.00 | CC(=O)N1CCc2nc(N3CCN(Cc4c(F)cc(F)cc4F)CC3)c(-c3cnn(C)c3)nc2C1 [Compound 343, 1-[3-(1-methyl-1H-pyrazol-4-yl)-2-{4-[(2,4,6-trifluorophenyl)methyl]piperazin-1-yl}-5H,6H,7H,8H-pyrido[3,4-b]pyrazin-6-yl]ethan-1-one] | 
 |  | 4.52 to 6.00 | 4.52 to 6.00 | COc1cc(F)c(CN2CCN(c3nc4c(nc3-c3cnn(C)c3)CN(C(C)=O)CC4)CC2)cc1Cl [Compound 361, 1-(2-{4-[(5-chloro-2-fluoro-4-methoxyphenyl)methyl]piperazin-1-yl}-3-(1-methyl-1H-pyrazol-4-yl)-5H,6H,7H,8H-pyrido[3,4-b]pyrazin-6-yl)ethan-1-one] | 
